Measured values reported in article PMC9363231, “High‐resolution analysis of individual spike peptide‐specific CD4 ^+ T‐cell responses in vaccine recipients and COVID‐19 patients” (Clinical & Translational Immunology, 2022).
Where two headings read alike, the source gives them in different places.

Columns and labels:
Test in all cases: biochemical
Assay type in all cases: binding
HLA-DRB1*09:01 = HLA-DRB1*09:01 (Homo sapiens, UniProt P01903+P01911, A100R/A103E/D57H/D86V/F55Y/F60I/F76Y/I96F/K127E/L162R/M171V/P40D/Q125H/Q99R/R33Q/R42F/S133A/S66N/T210M/V115G/W38K/Y107V/Y59G/Y89S)
HLA-DRB1*04:05 = HLA-DRB1*04:05 (Homo sapiens, UniProt P01903+P01911, A100R/A169T/D86S/F76Y/I96L/K127E/L162R/M171V/N62H/P40V/Q125Y/R42H/S133A/S149N/S66Y/V115G/V209L/W38E)
HLA-DRB1*11:01 = HLA-DRB1*11:01 (Homo sapiens, UniProt P01903+P01911, A100R/A169T/A87E/I96F/K41T/L162R/M171V/P40S/Q125H/Q178H/Q39Y/Q99D/R42S/S66Y/T262R/V115G/W38E)
HLA-DRB1*04:01 = HLA-DRB1*04:01 (Homo sapiens, UniProt P01903+P01911, A100K/A169T/F76Y/I96L/K127E/L162R/M171V/N62H/P40V/Q125Y/R42H/S133A/S149N/S66Y/V115G/V209L/W38E)
HLA-DRB1*07:01 = HLA-DRB1*07:01 (Homo sapiens, UniProt P01903+P01911, A100R/A102G/A103Q/D57E/D86V/E43K/F76Y/K127E/L162R/M171V/P40G/Q125H/Q99D/R33Q/R42Y/R54Q/S133A/S66F/T210M/V115G/Y107V/Y59L/Y89S)
HLA-DRB1*15:01 = HLA-DRB1*15:01 (Homo sapiens, UniProt P01903+P01911)
HLA-DRB1*03:01 = HLA-DRB1*03:01 (Homo sapiens, UniProt P01903+P01911, A100K/A102G/A103R/A169T/F55Y/I96L/K41T/L162R/M171V/P40S/Q125H/Q178H/Q39Y/R42S/S66N/T106N/T262R/W38E/Y61H)
HLA-DRB1*13:02 = HLA-DRB1*13:02 (Homo sapiens, UniProt P01903+P01911, A100E/A169T/K41T/L162R/M171V/P40S/Q125H/Q178H/Q39Y/Q99D/R42S/S66N/T262R/V115G/W38E/Y61H)
HLA-DRB1*01:01 = HLA-DRB1*01:01 (Homo sapiens, UniProt P01903+P01911, A100R/D57E/F55L/F60I/F76Y/I96L/L162R/M171V/P40L/Q125E/R42F/V115G/Y59C)
HLA-DRB1*12:01 = HLA-DRB1*12:01 (Homo sapiens, UniProt P01903+P01911, A100R/A169T/D57E/D86V/F55L/H45Y/K41T/L162R/M171V/P40S/Q125H/Q178H/Q39Y/Q99D/R42G/S66L/T262R/V114A/V67L/W38E/Y59H/Y61H/Y89S)
HLA-DRB1*08:02 = HLA-DRB1*08:02 (Homo sapiens, UniProt P01903+P01911, A100R/A103L/A169T/F76Y/H45Y/I96F/K41T/L162R/M171V/P40S/Q125H/Q178H/Q39Y/Q99D/R218S/R42G/S66Y/V115G/W38E)

HLA-DRB1*11:01, sequence (P01903 26-254 limits assumed, other chains not shown): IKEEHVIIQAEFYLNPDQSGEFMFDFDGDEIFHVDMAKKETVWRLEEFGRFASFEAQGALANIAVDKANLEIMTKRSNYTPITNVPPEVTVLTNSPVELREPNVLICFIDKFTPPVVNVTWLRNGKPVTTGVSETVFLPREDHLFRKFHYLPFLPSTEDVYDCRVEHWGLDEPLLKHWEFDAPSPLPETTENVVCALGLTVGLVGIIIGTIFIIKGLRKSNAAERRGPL
HLA-DRB1*03:01, sequence (P01903 26-254, other chains not shown): as the sequence (P01903 26-254 limits assumed, other chains not shown) above
HLA-DRB1*13:02, sequence (P01903 26-254 limits assumed, other chains not shown): as above

Compound | IC50 (HLA-DRB1*09:01) [nM] | IC50 (HLA-DRB1*04:05) [nM] | IC50 (HLA-DRB1*11:01) [nM] | IC50 (HLA-DRB1*04:01) [nM] | IC50 (HLA-DRB1*07:01) [nM] | IC50 (HLA-DRB1*15:01) [nM] | IC50 (HLA-DRB1*03:01) [µM] | IC50 (HLA-DRB1*13:02) [µM] | IC50 (HLA-DRB1*01:01) [nM] | IC50 (HLA-DRB1*12:01) [nM] | IC50 (HLA-DRB1*08:02) [nM] | IC50 (HLA-DRB1*01:01; read-out: in vitro binding capacity (IC50), DRB1*01:01) [nM]
CC(C)[C@H](NC(=O)CNC(=O)[C@H](Cc1ccc(O)cc1)NC(=O)[C@H](CS)NC(=O)[C@H](CCCCN)NC(=O)[C@H](Cc1ccccc1)NC(=O)[C@@H](NC(=O)[C@H](CO)NC(=O)[C@H](Cc1ccccc1)NC(=O)[C@H](CO)NC(=O)[C@H](C)NC(=O)[C@@H](N)CO)[C@@H](C)O)C(=O)N[C@@H](CO)C(=O)N1CCC[C@H]1C(=O)N[C@H](C(=O)O)[C@@H](C)O [peptide 75] | 117 | 559 | 626 | 3330 | 519 | 711 | > 40 | > 40 | 5290 | 11500 | 4670 | –
CC[C@H](C)[C@H](N)C(=O)N1CCC[C@H]1C(=O)N[C@@H](Cc1ccccc1)C(=O)N[C@@H](C)C(=O)N[C@@H](CCSC)C(=O)N[C@@H](CCC(N)=O)C(=O)N[C@@H](CCSC)C(=O)N[C@@H](C)C(=O)N[C@@H](Cc1ccc(O)cc1)C(=O)N[C@@H](CCCNC(=N)N)C(=O)N[C@@H](Cc1ccccc1)C(=O)N[C@@H](CC(N)=O)C(=O)NCC(=O)N[C@H](C(=O)NCC(=O)O)[C@@H](C)CC [peptide 180] | 7.9 | 1610 | 23 | 443 | 25 | 192 | 11.7 | 13.7 | 58 | 2.2 | 553 | –
CC(C)[C@H](N)C(=O)N[C@@H](Cc1ccccc1)C(=O)N[C@@H](CC(N)=O)C(=O)N[C@@H](C)C(=O)N[C@H](C(=O)N[C@@H](CCCNC(=N)N)C(=O)N[C@@H](Cc1ccccc1)C(=O)N[C@@H](C)C(=O)N[C@@H](CO)C(=O)N[C@H](C(=O)N[C@@H](Cc1ccc(O)cc1)C(=O)N[C@@H](C)C(=O)N[C@@H](Cc1c[nH]c2ccccc12)C(=O)N[C@@H](CC(N)=O)C(=O)N[C@@H](CCCNC(=N)N)C(=O)O)C(C)C)[C@@H](C)O [peptide 69] | 321 | 976 | 372 | 853 | 2.7 | 12 | > 40 | > 40 | – | 500 | 3710 | 1030
CC[C@H](C)[C@H](NC(=O)[C@H](Cc1ccccc1)NC(=O)[C@@H](N)CO)C(=O)N[C@@H](CCC(=O)O)C(=O)N[C@@H](CC(=O)O)C(=O)N[C@@H](CC(C)C)C(=O)N[C@@H](CC(C)C)C(=O)N[C@@H](Cc1ccccc1)C(=O)N[C@@H](CC(N)=O)C(=O)N[C@@H](CCCCN)C(=O)N[C@H](C(=O)N[C@H](C(=O)N[C@@H](CC(C)C)C(=O)N[C@@H](C)C(=O)N[C@@H](CC(=O)O)C(=O)O)[C@@H](C)O)C(C)C [peptide 164] | 1300 | 2170 | 13200 | 1100 | 3960 | 3170 | 3.23 | 0.174 | 4350 | 537 | 15200 | –
CC(C)C[C@H](NC(=O)[C@H](CCCNC(=N)N)NC(=O)[C@H](Cc1ccc(O)cc1)NC(=O)[C@H](CC(C)C)NC(=O)[C@@H](N)Cc1ccc(O)cc1)C(=O)N[C@@H](Cc1ccccc1)C(=O)N[C@@H](CCCNC(=N)N)C(=O)N[C@@H](CCCCN)C(=O)N[C@@H](CO)C(=O)N[C@@H](CC(N)=O)C(=O)N[C@@H](CC(C)C)C(=O)N[C@@H](CCCCN)C(=O)N1CCC[C@H]1C(=O)N[C@@H](Cc1ccccc1)C(=O)N[C@@H](CCC(=O)O)C(=O)O [peptide 91] | 13 | 543 | 4.2 | 590 | 575 | 1.7 | > 40 | 8.57 | 7360 | 323 | 23 | –
CC(C)C[C@H](NC(=O)[C@H](C)NC(=O)[C@H](CC(C)C)NC(=O)[C@H](CC(C)C)NC(=O)[C@@H](NC(=O)[C@H](CCC(N)=O)NC(=O)[C@H](Cc1ccccc1)NC(=O)[C@H](CCCNC(=N)N)NC(=O)[C@@H](N)[C@@H](C)O)[C@@H](C)O)C(=O)N[C@@H](Cc1c[nH]cn1)C(=O)N[C@@H](CCCNC(=N)N)C(=O)N[C@@H](CO)C(=O)N[C@@H](Cc1ccc(O)cc1)C(=O)N[C@@H](CC(C)C)C(=O)N[C@H](C(=O)O)[C@@H](C)O [peptide 48] | 11 | 794 | 14 | 337 | 3.9 | 5 | 13.8 | 29.9 | 38 | 18 | 177 | –
CC[C@H](C)[C@H](NC(=O)[C@H](Cc1ccccc1)NC(=O)[C@H](CO)NC(=O)[C@H](CCCNC(=N)N)NC(=O)[C@H](CCCCN)NC(=O)[C@H](CO)NC(=O)[C@@H]1CCCN1C(=O)[C@@H](N)CCCCN)C(=O)N[C@@H](CCC(=O)O)C(=O)N[C@@H](CC(=O)O)C(=O)N[C@@H](CC(C)C)C(=O)N[C@@H](CC(C)C)C(=O)N[C@@H](Cc1ccccc1)C(=O)N[C@@H](CC(N)=O)C(=O)N[C@@H](CCCCN)C(=O)O [peptide 163] | 519 | 3440 | 301 | 451 | 1930 | 6810 | 1.5 | > 40 | > 40000 | 3980 | 3410 | –
CC[C@H](C)[C@H](NC(=O)[C@H](CCCCN)NC(=O)[C@@H](N)Cc1ccccc1)C(=O)N[C@@H](Cc1ccc(O)cc1)C(=O)N[C@@H](CO)C(=O)N[C@@H](CCCCN)C(=O)N[C@@H](Cc1c[nH]cn1)C(=O)N[C@H](C(=O)N1CCC[C@H]1C(=O)N[C@H](C(=O)N[C@@H](CC(N)=O)C(=O)N[C@@H](CC(C)C)C(=O)N[C@H](C(=O)N[C@@H](CCCNC(=N)N)C(=O)N[C@@H](CC(=O)O)C(=O)O)C(C)C)[C@@H](C)CC)[C@@H](C)O [peptide 41] | 13 | 16300 | 229 | 5250 | 2.7 | 611 | > 40 | 9.04 | 64 | 7180 | 125 | –
CSCC[C@H](NC(=O)[C@H](CC(C)C)NC(=O)[C@H](Cc1ccccc1)NC(=O)[C@@H]1CCCN1C(=O)[C@H](CCC(N)=O)NC(=O)[C@H](CO)NC(=O)[C@@H](NC(=O)[C@H](Cc1ccc(O)cc1)NC(=O)[C@H](CCC(=O)O)NC(=O)[C@H](Cc1ccccc1)NC(=O)[C@@H](NC(=O)[C@@H](N)CS)[C@@H](C)O)C(C)C)C(=O)N[C@@H](CC(=O)O)C(=O)N[C@@H](CC(C)C)C(=O)N[C@@H](CCC(=O)O)C(=O)O [peptide 34] | – | 16 | 3380 | 1150 | – | 7240 | 5.86 | – | 495 | 416 | 1470 | –
CC[C@H](C)[C@H](NC(=O)[C@H](CC(=O)O)NC(=O)CNC(=O)[C@H](CC(C)C)NC(=O)[C@H](CS)NC(=O)[C@H](CC(=O)O)NC(=O)CNC(=O)[C@H](Cc1ccc(O)cc1)NC(=O)[C@H](CCC(N)=O)NC(=O)[C@H](CCCCN)NC(=O)[C@@H](NC(=O)[C@H](Cc1ccccc1)NC(=O)CNC(=O)[C@H](C)N)[C@@H](C)CC)C(=O)N[C@@H](C)C(=O)O [peptide 167] | 1560 | 950 | 3750 | 836 | 740 | 716 | – | – | 1100 | 17000 | 22300 | –
